The values that follow are results of earlier work, collected in patent US11123365B2, “Compositions comprising palmitoylethanolamide and hydrogen water, and methods thereof” (Perricone Hydrogen Water Company, LLC, priority 2019, dated 2021).

For `CCCCCCCCCCCCCCCC(=O)NCCO` [palmitoylethanolamide], the solubility in water entry is recorded as “less than 20 mM”.
